SMILES | solubility (mole fraction) (in n-octanol, 298.15 K) | solubility (mole fraction) (in n-octanol, 303.15 K) | solubility (mole fraction) (in n-octanol, 308.15 K) | solubility (mole fraction) (in n-octanol, 313.15 K) | solubility (mole fraction) (in n-octanol, 318.15 K) | solubility (mole fraction) (in water, 298.15 K) | solubility (mole fraction) (in water, 303.15 K) | solubility (mole fraction) (in water, 308.15 K) | solubility (mole fraction) (in water, 313.15 K) | solubility (mole fraction) (in water, 318.15 K)
O=c1c(O)c(-c2ccc(O)cc2)oc2cc(O)cc(O)c12 | 0.00857 | 0.00895 | 0.00965 | 0.0103 | 0.0118 | 4.59e-10 | 1.17e-09 | 2.31e-09 | 4.48e-09 | 7.65e-09
O=C1c2c(O)cc(O)cc2OC(c2ccc(O)c(O)c2)C1O (stereo not given) | 0.0127 | 0.0141 | 0.0157 | 0.0176 | 0.0196 | 2.55e-05 | 3.18e-05 | 4.5e-05 | 6.88e-05 | 8.05e-05
COc1ccc(-c2coc3cc(O)ccc3c2=O)cc1 | 0.00056 | 0.0006 | 0.00065 | 0.00069 | 0.00075 | 7.85e-10 | 3.51e-09 | 6.78e-09 | 1.08e-08 | 1.5e-08
COc1ccc(C2CC(=O)c3c(O)cc(O)cc3O2)cc1O (stereo not given) | 0.00269 | 0.00299 | 0.0033 | 0.00379 | 0.0042 | 5.51e-08 | 1.35e-07 | 2.52e-07 | 4.66e-07 | 7.9e-07
O=c1cc(-c2ccc(O)cc2)oc2cc(O)cc(O)c12 | 0.00077 | 0.0008 | 0.00084 | 0.00094 | 0.00102 | 7.47e-09 | 1.73e-08 | 2.96e-08 | 5.87e-08 | 1.03e-07
O=c1c(O)c(-c2ccc(O)cc2O)oc2cc(O)cc(O)c12 | 0.00226 | 0.00235 | 0.00251 | 0.00265 | 0.00288 | 6.19e-09 | 2.24e-08 | 3.25e-08 | 4.57e-08 | 9.53e-08
O=C1C[C@@H](c2ccc(O)cc2)Oc2cc(O)cc(O)c21 | 0.00903 | 0.00963 | 0.0103 | 0.0109 | 0.0114 | 1.79e-07 | 2.98e-07 | 4.96e-07 | 7.64e-07 | 1.1e-06
O=c1cc(-c2ccc(O)c(O)c2)oc2cc(O)cc(O)c12 | 0.0002 | 0.00021 | 0.00023 | 0.00025 | 0.00027 | 4.54e-08 | 6.74e-08 | 1.2e-07 | 1.91e-07 | 3.74e-07
O=c1cc(-c2ccccc2)oc2cc(O)cc(O)c12 | 0.00208 | 0.00218 | 0.00228 | 0.00234 | 0.00247 | 5.95e-10 | 1.24e-09 | 3.63e-09 | 1e-08 | 1.88e-08
O=c1c(O)c(-c2ccc(O)c(O)c2)oc2cc(O)cc(O)c12 | 0.00526 | 0.00608 | 0.00677 | 0.00747 | 0.00823 | 5.29e-09 | 1.02e-08 | 1.61e-08 | 2.34e-08 | 3.78e-08

Reference: BigSolDB 2.1
